Test results: patent publication US4269971A, “Antibiotic TM-531” (Taisho Pharmaceutical Co., Ltd., priority 1978, dated 1981)

Experiments:
[1] = tested on: gram-positive and plant pathogenic microorganisms; test: Physiological properties: growth inhibitory activity; conditions: in words
Piricularia sasakii = format: cell-based; conditions: 28° C., 7 days
macrophage = test: Toxic sign on macrophage by optical microscope; format: cell-based; conditions: mice macrophage culture with TM-531
Description: (§1) A mice macrophage cultured on a TC-199 medium containing 20% of calf serum was infected with Toxoplasma tachyzoites (hereinafter referred to as "T. tachyzoites") and cultured at 37° C. for about 1 hour. Thereafter, the resulting culture was washed with a phosphate buffer having pH 7.2 to wash out non-infected T. tachyzoites and an ethanol solution of antibiotic TM-531 was added to the medium at an appropriate concentration of antibiotic TM-531. The medium containing the protozoa and antibiotic TM-531 was incubated at 37° C. for 48 hours and then stained with Trypan Blue, and the number of T. tachyzoites per 100 macrophages was counted to determine the antitoxoplasma activity of antibiotic TM-531 as compared with the number of T. tachyzoites per 100 macrophages in the control medium containing no antibiotic TM-531.

[2] = tested on: gram-negative bacteria and yeasts; test: Physiological properties: activity on gram-negative bacteria and yeasts; conditions: in words
Eimeria tenella = test: Activity against Eimeria tenella in infected chicks; format: in vivo, Eimeria tenella in male chicks (white leghorn); conditions: 0.01% by weight in feed, 8 days after infection
Description: Male chicks (white leghorn species) immediately after hatching were fed with a mixed feed for chicks containing no anti-coccidium agent until the test started. On the 8th day of feeding, health conditions of the test chicks were observed and the body weight was determined thereby dividing the test chicks into three groups, each group comprising 10 chicks and having an equal distribution of body weight. The test group was fed with a mixed feed for chicks containing 0.01% by weight of antibiotic TM-531 and the infected control group and the healthy group were fed with the same mixed feed but containing no antibiotic TM-531. On the 48th hour of feeding, each of chicks of the test group and the infected control group was infected with 9×10^4 mature oocysts of Eimeria tenella by oral administration. Eight days after infection, body weight increase (%), mortality (%) and O.P.G. [The number of oocysts (×10^4) present in 1 g of the content of caecum] were determined, and faeces conditions were observed and compared with those of the healthy group to determine the activity of antibiotic TM-531 against Eimeria tenella.

Solubility = format: physicochemical
Toxoplasma tachyzoites = test: Antitoxoplasma activity in infected mice macrophage culture; format: cell-based, Toxoplasma (in mice macrophage); conditions: 0.1 ppm, 37° C., 48 hours
Description: as §1

Bacillus licheniformis = test: Antimicrobial activity (MIC), agar medium; format: cell-based; conditions: heart infusion agar
Description: (§2) The antimicrobial activity of antibiotic TM-531 was determined in terms of the minimum inhibitory concentration (MIC) using a heart infusion agar medium for the determination of activity on bacteria and a potato dextrose agar medium for the determination of activity on fungi and yeast.

Candida albicans = test: Antimicrobial activity (MIC), agar medium; format: cell-based; conditions: potato dextrose agar
Description: as §2

Saccharomyces cerevisiae = test: Antimicrobial activity (MIC), agar medium; format: cell-based; conditions: potato dextrose agar
Description: as §2

[3] = tested on: Bacillus subtilis ATCC 6633; test: Antimicrobial activity (MIC), agar medium; format: cell-based; conditions: heart infusion agar
Description: as §2

[4] = tested on: Streptococcus faecalis ATCC 8043; test: Antimicrobial activity (MIC), agar medium; format: cell-based; conditions: heart infusion agar
Description: as §2

[5] = tested on: Staphylococcus aureus FDA 209 P; test: Antimicrobial activity (MIC), agar medium; format: cell-based; conditions: heart infusion agar
Description: as §2

[6] = tested on: Staphylococcus aureus Smith; test: Antimicrobial activity (MIC), agar medium; format: cell-based; conditions: heart infusion agar
Description: as §2

[7] = tested on: Penicillium citrinum IAM 7003; test: Antimicrobial activity (MIC), agar medium; format: cell-based; conditions: potato dextrose agar
Description: as §2

[8] = tested on: Staphylococcus epidermidis TPR-25; test: Antimicrobial activity (MIC), agar medium; format: cell-based; conditions: heart infusion agar
Description: as §2

Proteus vulgaris HX 19 = test: Antimicrobial activity (MIC), agar medium; format: cell-based; conditions: heart infusion agar
Description: as §2

[9] = tested on: Staphylococcus epidermidis TRP-13; test: Antimicrobial activity (MIC), agar medium; format: cell-based; conditions: heart infusion agar
Description: as §2

[10] = tested on: Escherichia coli NIHJ C-2; test: Antimicrobial activity (MIC), agar medium; format: cell-based; conditions: heart infusion agar
Description: as §2

Corynebacterium xerosis = test: Antimicrobial activity (MIC), agar medium; format: cell-based; conditions: heart infusion agar
Description: as §2

[11] = tested on: Staphylococcus aureus TRP-23; test: Antimicrobial activity (MIC), agar medium; format: cell-based; conditions: heart infusion agar
Description: as §2

Trichophyton asteroides = test: Antimicrobial activity (MIC), agar medium; format: cell-based; conditions: potato dextrose agar
Description: as §2

[12] = tested on: Pseudomonas aeruginosa IID 1052; test: Antimicrobial activity (MIC), agar medium; format: cell-based; conditions: heart infusion agar
Description: as §2

[13] = tested on: Aspergillus niger NHL 5088; test: Antimicrobial activity (MIC), agar medium; format: cell-based; conditions: potato dextrose agar
Description: as §2

Micrococcus luteus NIHJ = test: Antimicrobial activity (MIC), agar medium; format: cell-based; conditions: heart infusion agar
Description: as §2

Gibberella fujikuroi = test: Growth inhibitory activity on plant pathogenic microorganisms (colony diameter); format: cell-based; conditions: 100 mcg/ml, 28° C., 7 days, control medium 27.6 mm
Botrytis cinerea = test: as above; format: cell-based; conditions: 100 mcg/ml, 28° C., 7 days, control medium 47.7 mm
protozoa = test: Physiological properties: activity on protozoa; conditions: protozoa as hog dysentery, coccidium, toxoplasma, trypanosome, malaria, etc.; in words
Glomerella cingulata = test: Growth inhibitory activity on plant pathogenic microorganisms (colony diameter); format: cell-based; conditions: 100 mcg/ml, 28° C., 7 days, control medium 27.3 mm
[14] = tested on: Helminthosporium sigmoldeum; test: as above; format: cell-based; conditions: 100 mcg/ml, 28° C., 7 days, control medium 22.8 mm

In the case of COC1CCC(OC2CC(C3(C)CCC4(CC(O)C(C)C(C(C)/C=C(\C)C(=O)C(C)CC(C)C(=O)O)O4)O3)OC3(OC(C4OC(C)(O)C(C)CC4C)CC3C)C2C)OC1C (centres unmarked) [TM-531], the growth inhibitory activity [1] was “exhibits growth inhibitory activity”, the “Colony Diameter, TM-531 Containing Medium” value (“Colony Diameter” for short) (Piricularia sasakii) was 63.0 mm and the “toxic sign on macrophage” value (macrophage) was “no toxic sign on macrophage”. For the same compound, the “effect on gram-negative bacteria and yeasts” value [2] was “ineffective on gram-negative bacteria and yeasts”, the “O.P.G. (number of oocysts present in 1 g of the content of caecum)” value (Eimeria tenella; infected control 17.3, healthy control 0) was 0 × 10^4 and the Mortality (Eimeria tenella; infected control 60, healthy control 0) was 0%. For the same compound, the “Body Weight Increase” value (Eimeria tenella; infected control 77.0, healthy control 100.0) was 105.1%, the “Faeces Conditions” value (Eimeria tenella; infected control loose passage 100%, hemafecial 80%) was “Normal” and the “Solubility in organic solvents” value (Solubility; methanol, ethanol, acetone, ethyl acetate, diethyl ether, benzene, chloroform, hexane and petroleum ether) was “soluble in methanol, ethanol, acetone, ethyl acetate, diethyl ether, benzene, chloroform, hexane and petroleum ether”. The Solubility in water (Solubility; water) was “insoluble in water”, the “Percent Macrophage infected with T. tachyzoites, 1 ~ 5/cell” value (Toxoplasma tachyzoites; T. tachyzoites 1 ~ 5/cell, control medium 30.8) was 0% and the “Percent Macrophage infected with T. tachyzoites, ≥6/cell” value (Toxoplasma tachyzoites; T. tachyzoites ≥6/cell, control medium 22.4) was 0%. For the same compound, the “Minimum Inhibitory Concentration” value (Bacillus licheniformis) was 1.56 µg/mL, the “Minimum Inhibitory Concentration” value (Candida albicans) was > 100 µg/mL and the “Minimum Inhibitory Concentration” value (Saccharomyces cerevisiae) was > 100 µg/mL. For the same compound, the “Minimum Inhibitory Concentration” value [3] was 1.56 µg/mL, the “Minimum Inhibitory Concentration” value [4] was 6.25 µg/mL and the “Minimum Inhibitory Concentration” value [5] was 1.56 µg/mL. The “Minimum Inhibitory Concentration” value [6] was 6.25 µg/mL, the “Minimum Inhibitory Concentration” value [7] was > 100 µg/mL and the “Minimum Inhibitory Concentration” value [8] was 3.13 µg/mL. For the same compound, the “Minimum Inhibitory Concentration” value (Proteus vulgaris HX 19) was > 100 µg/mL, the “Minimum Inhibitory Concentration” value [9] was 3.13 µg/mL and the “Minimum Inhibitory Concentration” value [10] was > 100 µg/mL. For the same compound, the “Minimum Inhibitory Concentration” value (Corynebacterium xerosis) was 1.56 µg/mL, the “Minimum Inhibitory Concentration” value [11] was 3.13 µg/mL and the “Minimum Inhibitory Concentration” value (Trichophyton asteroides) was > 100 µg/mL. The “Minimum Inhibitory Concentration” value [12] was > 100 µg/mL, the “Minimum Inhibitory Concentration” value [13] was > 100 µg/mL and the “Minimum Inhibitory Concentration” value (Micrococcus luteus NIHJ) was 3.13 µg/mL. For the same compound, the “Colony Diameter” value (Gibberella fujikuroi) was 20.2 mm, the “Colony Diameter” value (Botrytis cinerea) was 46.7 mm and the effect on protozoa (protozoa) was “effective on protozoa”. For the same compound, the “Colony Diameter” value (Glomerella cingulata) was 13.4 mm and the “Colony Diameter” value [14] was 15.4 mm.
